Data published in PubChem BioAssay AID1963851 (Molecular Pharmacology Branch, DTP, NCI, 2024).

Test system: 188146-221-R-J1-PDC complex spheroid viability
Assay: Anticancer human tumor 188146-221-R-J1-PDC patient-derived colon adenocarcinoma cell line growth inhibition [POLQ]
Conditions: for IC50: curve of first compound; for viability, T/C: stronger effect = lower value
In short: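 Three-cell-type spheroids modelling solid tumor plus stroma served as the readout system; POL inhibitors were tested individually and in combination, concentration ranges set by clinical Cmax where known.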

[1] = second compound 0.0316 µM, first compound 0.0316 µM
[2] = second compound 0.0316 µM, first compound 0.1 µM
[3] = second compound 0.0316 µM, first compound 0.316 µM
[4] = second compound 0.0316 µM, first compound 1 µM
[5] = second compound 0.0316 µM, first compound 3.16 µM
[6] = second compound 0.0316 µM, first compound 10 µM
[7] = second compound 0.1 µM, first compound 0.0316 µM
[8] = second compound 0.1 µM, first compound 0.1 µM
[9] = second compound 0.1 µM, first compound 0.316 µM
[10] = second compound 0.1 µM, first compound 1 µM
[11] = second compound 0.1 µM, first compound 3.16 µM
[12] = second compound 0.1 µM, first compound 10 µM
[13] = second compound 0.316 µM, first compound 0.0316 µM
[14] = second compound 0.316 µM, first compound 0.1 µM
[15] = second compound 0.316 µM, first compound 0.316 µM
[16] = second compound 0.316 µM, first compound 1 µM
[17] = second compound 0.316 µM, first compound 3.16 µM
[18] = second compound 0.316 µM, first compound 10 µM
[19] = second compound 1 µM, first compound 0.0316 µM
[20] = second compound 1 µM, first compound 0.1 µM
[21] = second compound 1 µM, first compound 0.316 µM
[22] = second compound 1 µM, first compound 1 µM
[23] = second compound 1 µM, first compound 3.16 µM
[24] = second compound 1 µM, first compound 10 µM
[25] = second compound 3.16 µM, first compound 0.0316 µM
[26] = second compound 3.16 µM, first compound 0.1 µM
[27] = second compound 3.16 µM, first compound 0.316 µM
[28] = second compound 3.16 µM, first compound 1 µM
[29] = second compound 3.16 µM, first compound 3.16 µM
[30] = second compound 3.16 µM, first compound 10 µM
[31] = second compound 10 µM, first compound 0.0316 µM
[32] = second compound 10 µM, first compound 0.1 µM
[33] = second compound 10 µM, first compound 0.316 µM
[34] = second compound 10 µM, first compound 1 µM
[35] = second compound 10 µM, first compound 3.16 µM
[36] = second compound 10 µM, first compound 10 µM
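Note: spheroids exposed to compounds for seven days.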
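Throughout, for viability, T/C: 100% = DMSO vehicle control viability.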

COc1ccc([C@@H](O)c2cc(-c3ncnc4cc(N5CCOCC5)ccc34)c(F)cc2Cl)nn1 + Nc1ccc(C#CCN(C(=O)Cc2ncc(C(F)(F)F)cc2C(F)(F)F)c2ccc(F)cc2)nn1
IC50 (second compound 0.0316 µM): 6.82 µM | IC50 (second compound 0.1 µM): 6.9 µM | IC50 (second compound 0.316 µM): > 10 µM | IC50 (second compound 1 µM): 8.15 µM | IC50 (second compound 3.16 µM): 7.39 µM | IC50 (second compound 10 µM): 6.86 µM | viability, T/C [1]: 103% | viability, T/C [2]: 118% | viability, T/C [3]: 96.6% | viability, T/C [4]: 87.6% | viability, T/C [5]: 65.1% | viability, T/C [6]: 42.5% | viability, T/C [7]: 109% | viability, T/C [8]: 91.3% | viability, T/C [9]: 91.1% | viability, T/C [10]: 83.9% | viability, T/C [11]: 74.1% | viability, T/C [12]: 39% | viability, T/C [13]: 122% | viability, T/C [14]: 95.3% | viability, T/C [15]: 95.5% | viability, T/C [16]: 83.6% | viability, T/C [17]: 82.5% | viability, T/C [18]: 44.5% | viability, T/C [19]: 103% | viability, T/C [20]: 96.8% | viability, T/C [21]: 91.9% | viability, T/C [22]: 87.2% | viability, T/C [23]: 69.8% | viability, T/C [24]: 45.3% | viability, T/C [25]: 104% | viability, T/C [26]: 102% | viability, T/C [27]: 110% | viability, T/C [28]: 97.6% | viability, T/C [29]: 81.7% | viability, T/C [30]: 38.8% | viability, T/C [31]: 102% | viability, T/C [32]: 104% | viability, T/C [33]: 103% | viability, T/C [34]: 91.6% | viability, T/C [35]: 63.9% | viability, T/C [36]: 43.3%

CC1COCCN1c1cc(C2(S(C)(=N)=O)CC2)nc(-c2ccnc3[nH]ccc23)n1 (centres undefined) + Nc1ccc(C#CCN(C(=O)Cc2ncc(C(F)(F)F)cc2C(F)(F)F)c2ccc(F)cc2)nn1
IC50 (second compound 0.0316 µM): 4.63 µM | IC50 (second compound 0.1 µM): 4.5 µM | IC50 (second compound 0.316 µM): 4.59 µM | IC50 (second compound 1 µM): 4.55 µM | IC50 (second compound 3.16 µM): 4.66 µM | IC50 (second compound 10 µM): 4.11 µM | viability, T/C [1]: 105% | viability, T/C [2]: 110% | viability, T/C [3]: 95.7% | viability, T/C [4]: 100% | viability, T/C [5]: 61.2% | viability, T/C [6]: 27.2% | viability, T/C [7]: 106% | viability, T/C [8]: 92.6% | viability, T/C [9]: 109% | viability, T/C [10]: 92.1% | viability, T/C [11]: 60.5% | viability, T/C [12]: 26.9% | viability, T/C [13]: 110% | viability, T/C [14]: 109% | viability, T/C [15]: 99.7% | viability, T/C [16]: 101% | viability, T/C [17]: 61.9% | viability, T/C [18]: 24.8% | viability, T/C [19]: 95.1% | viability, T/C [20]: 89.7% | viability, T/C [21]: 111% | viability, T/C [22]: 89.2% | viability, T/C [23]: 63.3% | viability, T/C [24]: 22.2% | viability, T/C [25]: 103% | viability, T/C [26]: 109% | viability, T/C [27]: 93.3% | viability, T/C [28]: 82.7% | viability, T/C [29]: 65.3% | viability, T/C [30]: 24.1% | viability, T/C [31]: 107% | viability, T/C [32]: 99.6% | viability, T/C [33]: 101% | viability, T/C [34]: 90% | viability, T/C [35]: 58.1% | viability, T/C [36]: 22.1%
